Assay results published in ChEMBL document CHEMBL1126639, “Centrally acting serotonergic and dopaminergic agents. 2. Synthesis and structure-activity relationships of 2,3,3a,4,9,9a-hexahydro-1H-benz[f]indole derivatives” (J Med Chem, 1993).

Legend:
D(2) dopamine receptor [1] = target: T1, D(2) dopamine receptor (Homo sapiens, UniProt P14416); assay: Binding affinity against [3H]U-86,170-labeled dopamine receptor D2 in cloned CHO cells; type: cell-based
Mus musculus [2] = assay: Antagonism of apomorphine for 0-10 minutes in reserpinized mice when a dose of 37 micro mol/kg is administered intraperitoneally; type: functional
Rattus norvegicus [3] = assay: Inhibition of firing rates of dopaminergic neurons in the substantia nigra pars compacta by intravenous injection in rats.; type: functional
Mus musculus [4] = assay: Antagonism of apomorphine for 0-10 minutes in reserpinized mice when a dose of 3.7 micro mol/kg is administered intraperitoneally; type: functional
D(2) dopamine receptor [5] = target: D(2) dopamine receptor (Rattus norvegicus, UniProt P61169); assay: Binding affinity for [3H]raclopride-labeled dopamine receptor D2 in rat striatum; type: tissue-based
D(2) dopamine receptor (Rattus norvegicus, UniProt P61169), sequence (P61169 whole entry): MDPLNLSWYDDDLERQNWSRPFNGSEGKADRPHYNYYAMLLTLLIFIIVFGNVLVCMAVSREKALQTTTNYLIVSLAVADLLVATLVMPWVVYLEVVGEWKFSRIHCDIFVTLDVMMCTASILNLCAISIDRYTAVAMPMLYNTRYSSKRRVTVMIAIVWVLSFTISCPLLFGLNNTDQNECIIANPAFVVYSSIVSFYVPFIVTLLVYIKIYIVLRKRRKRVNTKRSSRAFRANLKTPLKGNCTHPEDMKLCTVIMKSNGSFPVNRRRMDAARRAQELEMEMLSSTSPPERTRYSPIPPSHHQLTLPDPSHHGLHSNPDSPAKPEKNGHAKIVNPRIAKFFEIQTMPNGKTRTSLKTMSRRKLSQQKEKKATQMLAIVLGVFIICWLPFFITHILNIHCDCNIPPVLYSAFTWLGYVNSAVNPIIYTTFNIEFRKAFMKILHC

Mus musculus [6] = assay: Antagonism of apomorphine for 0-10 minutes in reserpinized mice when a dose of 0.4 micro mol/kg is administered intraperitoneally; type: functional
Mus musculus [7] = assay: Antagonism of apomorphine in reserpinized mice when a dose of 0.4 micro mol/kg is administered intraperitoneally; type: functional
Mus musculus [8] = assay: Antagonism of apomorphine for 10-20 minutes in reserpinized mice when a dose of 3.7 micro mol/kg is administered intraperitoneally; type: functional
Mus musculus [9] = assay: Antagonism of apomorphine for 10-20 minutes in reserpinized mice when a dose of 37 micro mol/kg is administered intraperitoneally; type: functional
Mus musculus [10] = assay: Ability to stimulate dopaminergic systems by effect on locomotor activity in reserpinized mice when a dose of 37 micro mol/kg is administered intraperitoneally; type: functional
Rattus norvegicus [11] = assay: Effect on the synthesis rates of dopamine (DOPA accumulation) in the rat ventral limbic brain region at 3.7 uM/kg.; type: functional, Limbic system
D(2) dopamine receptor [12] = target: T1, D(2) dopamine receptor; assay: Intrinsic activity from GTP shift using CHO cell membranes expressing dopamine receptor D2; type: functional
Mus musculus [13] = assay: Ability to stimulate dopaminergic systems by effect on locomotor activity in reserpinized mice when a dose of 0.4 micro mol/kg is administered intraperitoneally; type: functional
Mus musculus [14] = assay: Antagonism of apomorphine in reserpinized mice when a dose of 3.7 micro mol/kg is administered intraperitoneally; type: functional
Rattus norvegicus [15] = species on record: Rattus norvegicus; assay: Effect on the synthesis rates of serotonin (5-HTP accumulation) in the rat ventral limbic brain region […].; type: functional, Limbic system
Mus musculus [16] = assay: Antagonism of apomorphine in reserpinized mice when a dose of 37 micro mol/kg is administered intraperitoneally; type: functional
Rattus norvegicus [17] = assay: Inhibition of firing rates of dopaminergic neurons in the substantia nigra pars compacta by intravenous injection in rats; type: functional
Mus musculus [18] = assay: Antagonism of apomorphine for 10-20 minutes in reserpinized mice when a dose of 0.4 micro mol/kg is administered intraperitoneally; type: functional
Mus musculus [19] = assay: Ability to stimulate dopaminergic systems by effect on locomotor activity in reserpinized mice when a dose of 3.7 micro mol/kg is administered intraperitoneally; type: functional
Mus musculus [20] = assay: Antagonism of apomorphine for 10-20 minutes in reserpinized mice when a dose of 38 micro mol/kg is administered intraperitoneally; type: functional
Mus musculus [21] = assay: Antagonism of apomorphine for 0-10 minutes in reserpinized mice when a dose of 3.8 micro mol/kg is administered intraperitoneally; type: functional
Mus musculus [22] = assay: Antagonism of apomorphine for 10-20 minutes in reserpinized mice when a dose of 3.8 micro mol/kg is administered intraperitoneally; type: functional
Mus musculus [23] = assay: Ability to stimulate dopaminergic systems by effect on locomotor activity in reserpinized mice when a dose of 38 micro mol/kg is administered intraperitoneally; type: functional
Mus musculus [24] = assay: Antagonism of apomorphine in reserpinized mice when a dose of 38 micro mol/kg is administered intraperitoneally; type: functional
Mus musculus [25] = assay: Antagonism of apomorphine in reserpinized mice when a dose of 3.8 micro mol/kg is administered intraperitoneally (**,p<0.10); type: functional
Mus musculus [26] = assay: Antagonism of apomorphine for 0-10 minutes in reserpinized mice when a dose of 38 micro mol/kg is administered intraperitoneally; type: functional
Mus musculus [27] = assay: Ability to stimulate dopaminergic systems by effect on locomotor activity in reserpinized mice when a dose of 3.8 micro mol/kg is administered intraperitoneally; type: functional

T1 sequence (P14416 whole entry): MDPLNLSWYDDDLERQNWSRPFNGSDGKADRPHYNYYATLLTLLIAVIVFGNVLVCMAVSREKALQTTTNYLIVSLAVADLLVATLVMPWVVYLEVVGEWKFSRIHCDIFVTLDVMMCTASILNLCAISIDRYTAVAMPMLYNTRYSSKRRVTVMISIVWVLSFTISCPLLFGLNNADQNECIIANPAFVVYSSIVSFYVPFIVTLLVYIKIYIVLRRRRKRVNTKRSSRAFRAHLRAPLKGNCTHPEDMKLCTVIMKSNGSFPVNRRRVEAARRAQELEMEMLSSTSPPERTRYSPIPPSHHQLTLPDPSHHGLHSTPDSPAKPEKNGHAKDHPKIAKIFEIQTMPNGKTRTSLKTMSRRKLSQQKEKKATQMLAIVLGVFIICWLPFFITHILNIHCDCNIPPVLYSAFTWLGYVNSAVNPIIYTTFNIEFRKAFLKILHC

How did the Ki (D(2) dopamine receptor [1]) turn out when `CCCN1CC[C@H]2Cc3c(O)cccc3C[C@@H]21` was run?
The Ki was 917 nM.

What about the Locomotor activity (Mus musculus [2]) of the same molecule?
The Locomotor activity was 84.

What about the ED50 (Rattus norvegicus [3]) of the same molecule?
Its ED50 is over 3.73 µmol/kg.

What about the Locomotor activity (Mus musculus [4]) of the same molecule?
The Locomotor activity was 109.

And the Ki (D(2) dopamine receptor [5])?
The Ki was over 630 nM.

What about the Locomotor activity (Mus musculus [6]) of the same molecule?
The Locomotor activity was 121.

And the Locomotor activity (Mus musculus [7])?
The Locomotor activity was 81.

What about the Locomotor activity (Mus musculus [8]) of the same molecule?
Its Locomotor activity is 119.

What about the Locomotor activity (Mus musculus [9]) of the same molecule?
Its Locomotor activity is 103.

And the Locomotor activity (Mus musculus [10])?
Its Locomotor activity is 113.

What about the Control (Rattus norvegicus [11]) of the same molecule?
Its Control is 20%.

What about the Intrinsic activity (D(2) dopamine receptor [12]) of the same molecule?
Its Intrinsic activity is 18%.

What about the Locomotor activity (Mus musculus [13]) of the same molecule?
Its Locomotor activity is 45.

And the Locomotor activity (Mus musculus [14])?
The Locomotor activity was 86.

What about the Control (Rattus norvegicus [15]) of the same molecule?
The Control was 12%.

What about the Locomotor activity (Mus musculus [16]) of the same molecule?
Its Locomotor activity is 77.

What about the ED50 (Rattus norvegicus [17]) of the same molecule?
Its ED50 is over 3.73 µmol/kg.

And the Locomotor activity (Mus musculus [18])?
The Locomotor activity was 119.

What about the Locomotor activity (Mus musculus [19]) of the same molecule?
The Locomotor activity was 1.

For `C=CCN1CC[C@@H]2Cc3c(O)cccc3C[C@H]21`, which Locomotor activity (Mus musculus [20]) is on record?
Its Locomotor activity is 34.

What about the Ki (D(2) dopamine receptor [1]) of the same molecule?
The Ki was 0.3 nM.

And the Locomotor activity (Mus musculus [21])?
The Locomotor activity was 23.

And the ED50 (Rattus norvegicus [3])?
Its ED50 is 0.002 µmol/kg.

What about the Locomotor activity (Mus musculus [22]) of the same molecule?
The Locomotor activity was 29.

What about the Ki (D(2) dopamine receptor [5]) of the same molecule?
The Ki was 3 nM.

And the Locomotor activity (Mus musculus [6])?
The Locomotor activity was 60.

And the Locomotor activity (Mus musculus [7])?
The Locomotor activity was 141.

And the Locomotor activity (Mus musculus [23])?
Its Locomotor activity is 1549.

What about the Locomotor activity (Mus musculus [24]) of the same molecule?
Its Locomotor activity is 103.

What about the Locomotor activity (Mus musculus [25]) of the same molecule?
Its Locomotor activity is 147.

What about the Locomotor activity (Mus musculus [26]) of the same molecule?
The Locomotor activity was 54.

And the Locomotor activity (Mus musculus [13])?
Its Locomotor activity is 1092.

What about the Locomotor activity (Mus musculus [18]) of the same molecule?
Its Locomotor activity is 61.

What about the Locomotor activity (Mus musculus [27]) of the same molecule?
Its Locomotor activity is 1297.
